Test results published in patent US20250304623A1, “PEPTIDES FOR INTRACELLULAR DELIVERY” (UNIVERSIDADE DE SANTIAGO DE COMPOSTELA, priority 2022, published 2025).
*: point of attachment. NHNH2 = NN*

Experiments:
Type in all cases: cell-based
[1] = system: Hela cells expressing EGFP; assay: Cas9-RNP delivery against EGFP (gene editing, plate reader), HeLa
Procedure, shortened: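 HeLa cells stably expressing EGFP were plated in 96-well plates at 50,000 cell/mL (100 μL/w) in DMEM+10% FBS+1% Gln-Abt one day ahead. Cas9-RNP targeting EGFP was premixed with amphiphile for 30 min at room temperature, applied for 4 h at 50 nM RNP, then medium was replaced; EGFP fluorescence was read on a plate reader after 72 h, in triplicate.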

Hela cells = assay: EGFP mRNA delivery, robotic library screening, HeLa
Procedure, shortened: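 Transfection used amphiphile at final 2.5, 5 or 10 μM with EGFP mRNA (25 ng/well) for 4 h without serum, then medium with 10% FBS. Plate-reader EGFP signal at 72 h, untreated background removed, mean of triplicates.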

[2] = system: HepG2 cells expressing EGFP; assay: EGFP-targeting siRNA delivery (GFP silencing vs siMOCK), HepG2
Procedure, shortened: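 After 72 h, a plate reader measured EGFP fluorescence in HepG2 EGFP cells transfected with amphiphile/siRNA complexes (30 nM siGFP). Silencing was expressed as percent fluorescence decrease relative to cells given non-targeting siMOCK, with untreated-cell background subtracted. Triplicate means were reported, and Lipofectamine RNAiMAX served as a comparison.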

## Ac-RK*LRRK*L-NH2 (Ac-RK(NHNH2)LRRK(NHNH2)L-NH2; not fully specified; printed as Ac-RK*LRRK*L-NH2; also: K*2,K*6: native or modified lysine (ε-amide to a linker)) [Peptide 7.2]
[1]; Dodecanal, 5 μM, Hela cells
  percentage of gene editing, GFP fluorescence intensity decrease (% of reduction): 6%
[1]; Dodecanal, 10 μM, HeLa cells
  percentage of gene editing, GFP fluorescence intensity decrease (% of reduction): −22%
[1]; Dodecanal, 15 μM, Hela cells
  percentage of gene editing, GFP fluorescence intensity decrease (% of reduction): −26%
[1]; Myristoleyl, 5 μM, HeLa cells
  percentage of gene editing, GFP fluorescence intensity decrease (% of reduction): −7%
[1]; Myristoleyl, 10 μM, HeLa cells
  percentage of gene editing, GFP fluorescence intensity decrease (% of reduction): −18%
[1]; Myristoleyl, 15 μM, Hela cells
  percentage of gene editing, GFP fluorescence intensity decrease (% of reduction): −6%
Hela cells; HeLa, Dodecanal, 2.5 μM
  mean fluorescence intensity (EGFP mRNA): 268
Hela cells; HeLa, Dodecanal, 5 μM
  mean fluorescence intensity (EGFP mRNA): 341
Hela cells; HeLa, Myristoleyl, 2.5 μM
  mean fluorescence intensity (EGFP mRNA): 5194
Hela cells; Hela, Dodecanal, 10 μM
  mean fluorescence intensity (EGFP mRNA): 288
Hela cells; Hela, Myristoleyl, 5 μM
  mean fluorescence intensity (EGFP mRNA): 654
Hela cells; Hela, Myristoleyl, 10 μM
  mean fluorescence intensity (EGFP mRNA): 358
[2]; Dodecanal, 10 μM
  percentage of GFP-silencing relative to siMOCK: 14%
[2]; Dodecanal, 15 μM
  percentage of GFP-silencing relative to siMOCK: 7%
[2]; Myristoleyl, 5 μM
  percentage of GFP-silencing relative to siMOCK: −12%
[2]; Myristoleyl, 10 μM
  percentage of GFP-silencing relative to siMOCK: −1%
[2]; Myristoleyl, 15 μM
  percentage of GFP-silencing relative to siMOCK: −32%
